“Also recorded” adds a separate entry of the source. Read-outs that look alike come from different tables or passages of the source.
Tests used:
[1] = tested on: synaptic transmission in the hippocampus; experiment: Extracellular fEPSP recording in hippocampal slices (synaptic transmission); type: cell-based, rat
Procedure: (§1) Preparation of hippocampal slices: Sagittal slices of hippocampus (300-400 μm) were prepared from male Sprague Dawley rats, at postnatal days 12 to 20. Rats were kept on a 12-hour light-dark cycle with slices made 90 minutes after entering the light cycle. […] The brain was removed, cut down the mid line and the two sides of the brain stuck down to a metal base plate. […] Slices were stored at 34° C. for 1 to 6 hours in aCSF (1 mM MgCl2, 2 mM CaCl2) before use.
Extracellular recording: A slice was transferred to the recording chamber, submerged in aCSF and perfused at 4 to 6 mL/min (32° C.). The slice was placed on a grid allowing perfusion above and below the tissue and all tubing was gas tight (to prevent loss of oxygen). For extracellular recording, an aCSF filled microelectrode was placed on the surface of stratum radiatum in CA1. […] For fEPSPs a 10 to 20 minute baseline was recorded at a stimulus intensity that gave 40 to 50% of the maximal response. […] For fEPSP slope, a 1 ms linear region after the fibre volley was measured. Extracellular recordings were made independently on two electrophysiology rigs.
Statistical significance was tested using the unpaired t-test and one-way and two-way ANOVAs with Bonferroni correction for multiple comparisons.
(§2) Data Analysis. […] Statistical significance was tested as indicated in the text using paired or unpaired t-tests or one-way or two-way ANOVAs with repeated measures (RM) as appropriate. Bonferroni corrections for multiple comparisons were performed. All in vitro cell signalling assay data was analysed using Prism 7.0e (Graphpad software, San Diego, Calif.), with all concentration-response curves being fitted using a 3 parameter logistic equation to calculate response range and IC50. All cAMP data was normalised to a forskolin concentration-response curve ran in parallel to each assay. […] Radioligand displacement curves were fitted to the one-site competition binding equation yielding log Ki values. […] To determine the extent of ligand-induced recruitment of β-arrestin2-YFP to either the A1R or A3R, the BRET signal was calculated by subtracting the 530 nm/450 nm emission for vehicle-treated cells from ligand-treated cells (ligand-induced ΔBRET). ΔBRET for each concentration at 5 minutes (maximum response) was used to produce concentration-response curves.

Goa = type: cell-based, human; settings: PTX-treated cells
Procedure: Cells were then incubated for 24 hours before addition of 100 ng/ml PTX, to inhibit activity of endogenous Gαi/o, and then incubated for a further 16-18 hours. Transfected cells were then assayed as per cAMP inhibition experiments, but co-stimulated with agonist and 100 nM forskolin.
as §2

[2] = tested on: seizure activity induced in hippocampal slices; experiment: Seizure model in hippocampal slices (no added Mg2+, 6 mM K+ aCSF); type: cell-based, rat; settings: adenosine 20-100 μM, NECA 300 nM, CPA 300 nM, BnOCPA 300 nM to 1 μM
Procedure: as §1
Seizure model: Seizure activity was induced in hippocampal slices using aCSF which contained no added Mg^2+ and with the total K^+ concentration increased to 6 mM with KCl. Removal of extracellular Mg^2+ facilitates NMDA receptor activation producing long lasting EPSPS, which can sum together to produce tonic activation. Increasing the extracellular concentration of K^+ depolarises neurons leading to firing and release of glutamate to sustain activity. Both the increase in K^+ concentration and removal of Mg^2+ are required to produce spontaneous activity in hippocampal slices. Spontaneous activity was measured with an aCSF-filled microelectrode placed within stratum radiatum in CA1.

[3] = tested on: membrane potential of pyramidal cells; experiment: Whole cell current clamp recording of membrane potential, CA1 pyramidal cells; type: cell-based, rat
Procedure: as §1
Whole cell patch clamp recording from hippocampal pyramidal cells: A slice was transferred to the recording chamber and perfused at 3 mL/min with aCSF at 32±0.5° C. Slices were visualised using IR-DIC optics with an Olympus BX151W microscope (Scientifica) and a CCD camera (Hitachi). […] Voltage and current recordings were obtained using an Axon Multiclamp 700B amplifier (Molecular Devices, USA) and digitised at 20 KHz. Data acquisition and analysis was performed using Pclamp 10 (Molecular Devices). For voltage clamp experiments, CA1 pyramidal cells were held at −60 mV. Peptides to interfere with G protein signalling were introduced via the patch pipette into the recorded cell.

[4] = tested on: adenosine-induced outward current in CA1 pyramidal cells; experiment: Whole-cell voltage clamp, adenosine-induced outward current with G protein interfering peptides; type: cell-based, rat; settings: for mean amplitude of the adenosine-induced outward current with intracellular peptide: peptide 100 μM via patch pipette
Procedure: Whole cell patch clamp recording from hippocampal pyramidal cells: A slice was transferred to the recording chamber and perfused at 3 mL/min with aCSF at 32±0.5° C. Slices were visualised using IR-DIC optics with an Olympus BX151W microscope (Scientifica) and a CCD camera (Hitachi). Whole-cell current clamp recordings were made from pyramidal cells in area CA1 of the hippocampus using patch pipettes (5 to 10 MΩ) manufactured from thick walled glass (Harvard Apparatus, Edenbridge UK) and containing (mM): potassium gluconate 135, NaCl 7, HEPES 10, EGTA 0.5, phosphocreatine 10, MgATP 2, NaGTP 0.3 and biocytin 1 mg/mL (290 mOSM, pH 7.2). Voltage and current recordings were obtained using an Axon Multiclamp 700B amplifier (Molecular Devices, USA) and digitised at 20 KHz. Data acquisition and analysis was performed using Pclamp 10 (Molecular Devices). For voltage clamp experiments, CA1 pyramidal cells were held at −60 mV. Peptides to interfere with G protein signalling were introduced via the patch pipette into the recorded cell. […].
Drugs: Drugs were made up as stock solutions (1 to 10 mM) and then diluted in aCSF on the day of use. Compounds were dissolved in dimethyl-sulphoxide (DMSO, 0.01% final concentration of DMSO). […]. Peptides for interfering with G protein signalling were obtained from Hello Bio (Bristol, UK) and were based on published sequences (Varani et al., Adv Exp Med Biol 1051, 193-232 (2017)). […] The scrambled version was […]. […] Peptides were made up as stock solutions (2 mM) and stored at −20° C. The stock solutions were dissolved in filtered intracellular solution just before use.

isolated frog heart = experiment: Frog heart preparation, heart rate; set-up: species or system Xenopus leavis
Procedure: Frog heart preparation: Xenopus […] frogs (young adult males) were supplied from Portsmouth Xenopus Resource Centre. Frogs were euthanized with MS222 (0.2% at a pH of 7), decapitated and pithed. The animals were dissected to reveal the heart and the pericardium carefully removed. Heart contractions were measured with a force transducer (AD instruments). Heart rate was acquired via a PowerLab […] (AD instruments) controlled by LabChart 7 (AD instruments). The heart was regularly washed with ringer and drugs were applied directly to the heart.

[5] = tested on: urethane-anaesthetised, spontaneously breathing adult rats; experiment: In vivo anaesthetised rat preparation, heart rate and mean arterial blood pressure
[6] = rat hippocampal slices, CA1, read-out: IC50, inhibition of synaptic transmission (fEPSP slope)
[7] = IV, adenosine 1 mg·kg^−1, BnOCPA 10 μg·kg^−1, CPA 420 ng·kg^−1

## Cn1c(=O)c2[nH]c(C3CCCC3)nc2n(C)c1=O [8-CPT, 8-cyclopentyltheophylline]
[1]; 8-CPT 2 μM (adenosine) or 4 μM (BnOCPA)
  effect of the A1 receptor antagonist on agonist inhibition of synaptic transmission: reversed the inhibition of synaptic transmission caused by adenosine

## OC[C@H]1O[C@@H](n2cnc3c(N[C@@H]4CCC[C@H]4O)ncnc32)[C@H](O)[C@@H]1O [HOCPA]
Goa
  activation of / coupling to Goa: coupled to a range of Gi/o subunits, and in particular Goa

## CCNC(=O)[C@H]1O[C@@H](n2cnc3c(N)ncnc32)[C@H](O)[C@@H]1O [NECA, 5′-(N-Ethylcarboxamido) adenosine]
[1]; [6]
  IC50: 0.0083 ± 0.003 µM
[2]
  effect on seizure activity: rapidly and reversibly abolished seizure activity; also recorded: blocks seizure activity in a reversible manner
Goa
  activation of / coupling to Goa: coupled to a range of Gi/o subunits, and in particular Goa

## Nc1ncnc2c1ncn2[C@@H]1O[C@H](CO)[C@@H](O)[C@H]1O [adenosine]
[1]; Rattus norvegicus, read-out: IC50, inhibition of synaptic transmission by adenosine with 8-CPT, in the presence of 2 μM 8-CPT
  IC50: 125 ± 10 µM
[1]; [6]
  IC50: 20 ± 4.3 µM
[2]
  effect on seizure activity: reversibly blocks seizure activity
[2]; listed as Adenosine
  effect on seizure activity: rapidly and reversibly abolished seizure activity
[3]; adenosine 100 μM, CPA 300 nM
  membrane potential after agonist: −74.1±1.5 mV
[3]; adenosine 100 μM, CPA 300 nM, BnOCPA 300 nM-1 μM
  mean change of membrane potential (hyperpolarisation): −4.7±0.5 mV
[4]; adenosine 10 μM, control conditions, held at −60 mV
  mean amplitude of the outward current induced by adenosine: 43.9±3.1 pA
Isolated frog heart; adenosine 30 μM
  reduction of heart rate: about 15%
Isolated frog heart; adenosine 30 μM after BnOCPA 300 nM
  reduction of heart rate by adenosine following BnOCPA: 0.27±0.2 BPM
Isolated frog heart; adenosine 30 μM, BnOCPA 300 nM, CPA
  reduction / change of heart rate: 6.25±0.6 BPM
Isolated frog heart; adenosine 30 μM, from 42±1.2 BPM
  heart rate after application: 35.5±1.2 BPM
[5]; IV co-injection
  MAP after adenosine co-injected with BnOCPA: 51±4 mmHg
  change of HR by adenosine co-injected with BnOCPA: about 12%
  mean change of HR by adenosine co-injected with BnOCPA: 51±4 BPM
[5]; [7]
  change of HR: about 66%
  heart rate (HR) after injection: 147±12 BPM
  mean arterial blood pressure (MAP) after injection: 46±4 mmHg
[5]; adenosine IV
  reduction of MAP: about 47%
[5]; single anaesthetised rat preparation, IV
  effect on HR and BP: HR and BP depression

## NCC(CC(=O)O)c1ccc(Cl)cc1 (stereo not drawn) [baclofen]
[3]; BnOCPA 300 nM
  mean hyperpolarisation produced by baclofen in the presence of BnOCPA: 6.5±0.43 mV
[3]; baclofen (10 µM), BnOCPA 300 nM, from −67 mV
  membrane potential after baclofen in the presence of BnOCPA (example): −74 mV
[3]; without BnOCPA
  mean hyperpolarisation produced by baclofen in control conditions: 6.3±0.76 mV

## Goa interfering peptide: peptide interfering with G protein signalling, sequence MGIANNLRGCGLY
[4]
  effect of peptide on adenosine-induced outward current: caused a significant attenuation of the adenosine-induced outward current
[4]; adenosine 10 μM
  mean amplitude of the adenosine-induced outward current with intracellular peptide: 20.9±3.6 pA

## Gob interfering peptide: peptide interfering with G protein signalling, sequence MGIQNNLKYIGIC
[4]
  effect of peptide on adenosine-induced outward current: neither the scrambled peptide nor the Gob peptide had any effect on current amplitude
[4]; adenosine 10 μM
  mean amplitude of the adenosine-induced outward current with intracellular peptide: 37.4±2.2 pA

## scrambled peptide: scrambled version of the Goa peptide, sequence LNRGNAYLCIGMG
[4]
  effect of peptide on adenosine-induced outward current: neither the scrambled peptide nor the Gob peptide had any effect on current amplitude
[4]; adenosine 10 μM
  mean amplitude of the adenosine-induced outward current with intracellular peptide: 43.4±2.4 pA

From patent US20220152077A1 (THE UNIVERSITY OF WARWICK, priority 2019, published 2022)
